Common to all, as to assay type: functional, cell-based
In test [1] the test system is MCF7. Briefly: Cytotoxicity against human MCF7 cells assessed as inhibition of cell growth incubated for 72 hrs by MTT assay. Particulars: MCF7, 72 h. A general note: Formazan colour is commonly taken as a measure of viable cells.
The test system of another test is HeLa S3. Briefly: Cytotoxicity against human HeLa S3 cells assessed as inhibition of cell growth incubated for 72 hrs by MTT assay. Particulars: HeLa S3, 72 h.
For test [2], the system named is MCF7. In words: Cytotoxicity against human MCF7 cells assessed as inhibition of cell growth incubated for 24 hrs by MTT assay. Particulars: MCF7, 24 h.
Another test deals with HL-60. Briefly: Cytotoxicity against human HL-60 cells assessed as inhibition of cell growth incubated for 24 hrs by MTT assay. Particulars: HL-60, 24 h.
For a further test, the system named is SW480. In words: Cytotoxicity against human SW480 cells assessed as inhibition of cell growth incubated for 24 hrs by MTT assay. The note with it: SW480, 24 h.

pIC50: −log10 of the molar value. Bounds are passed on as bounds.

Our source for the IC50 values is ChEMBL document CHEMBL5120912, “Structure Revision of Trichomide D by Total Synthesis” (J Nat Prod, 2022).

Usually pIC50 stands for the negative decadic logarithm of the IC50, by convention in mol/L.

Consider `CC[C@H](C)[C@@H]1NC(=O)[C@@H]2[C@@H](C)CCN2C(=O)[C@@H](C[C@H](O)CO)OC(=O)CCNC(=O)[C@H](C)N(C)C(=O)[C@H]([C@@H](C)CC)N(C)C1=O`, for which the pIC50 with MCF7 [1] and in the test on HeLa S3 was less than 5.00 throughout.

Consider `CC[C@H](C)[C@@H]1NC(=O)[C@@H]2[C@@H](C)CCN2C(=O)[C@@H](C[C@@H](O)CCl)OC(=O)CCNC(=O)[C@H](C)N(C)C(=O)[C@H]([C@@H](C)CC)N(C)C1=O`, for which the pIC50 was 7.10 with MCF7 [2]; 6.83 with HL-60; 6.97 in the test with SW480; 5.55 with MCF7 [1]; 6.40 with HeLa S3.

`CC[C@H](C)[C@@H]1NC(=O)[C@@H]2[C@@H](C)CCN2C(=O)[C@@H](C[C@H](O)CCl)OC(=O)CCNC(=O)[C@H](C)N(C)C(=O)[C@H]([C@@H](C)CC)N(C)C1=O`: the pIC50 with MCF7 [1] is 6.47; in the test on HeLa S3, 7.51.

Consider `CO[C@@]12[C@H](COC(N)=O)C3=C(C(=O)C(C)=C(N)C3=O)N1C[C@@H]1N[C@@H]12` [MITOMYCIN], for which the figures for the pIC50 in the test with MCF7 [1] and in the test on HeLa S3 were 5.74 and 6.28, respectively.
